Results on four compounds are retold here after patent US8911998B2, “Methods for identifying fragile histidine triad (FHIT) interaction and uses thereof” (priority 2007, dated 2014).

Peptide text beside a SMILES is read from it. * marks the point of attachment. Cbz = O=C(OCc1ccccc1)*

Series [1] relates to H1299 D1 cells. The experiment in a line: Flow cytometry (propidium iodide) of PonA-induced Fhit-expressing cells. The note with it: for sub-G1 population: 48 h. The series is classed as cell-based. (A flow cytometer gives signals particle by particle.)
Experimental: (§8) FIG. 4E, FACS analysis of D1 and E1 cell cycle kinetics at 48 h after oxidative stress treatment. Cells were treated with PonA for 48 h and then with increasing concentrations of H2O2 (0.25 and 0.5 mM) for 4 h. Analysis was at 48 h after H2O2 treatment. All experiments were performed twice in triplicate.
(§9) FIG. 6C and FIG. 6D, the graphs show representative results of flow cytometry analyses of E1 and D1 cells. Cells were treated with PonA for 48 h and then with paclitaxel (50-500 ng/ml) (FIG. 6C) or cisplatin (0.05-0.2 mM) (FIG. 6D). Each data point was measured in triplicate at 24, 48, and 72 h (data shown for 48 h).
(§10) PonA-induced H1299 D1 and E1 cells were treated with 0.25 and 0.5 mM H2O2 or with chemotherapeutic drugs and incubated for varying times, as indicated in the text and figures. For both experiments the cells were collected, washed with phosphate-buffered saline, and resuspended in cold 70% ethanol. For analysis, cells were spun down, washed in phosphate-buffered saline, and suspended in 0.1 mg/ml propidium iodide/Triton X-100 staining solution (0.1% Triton X-100, 0.2 mg/ml DNase-free RNase A) for 30 min at room temperature and analyzed by flow cytometry.
Series [2] deals with H1299 E1 cells. The experiment in a line: Flow cytometry (propidium iodide) of PonA-treated Fhit-negative control cells. The series is classed as cell-based. The note with it: for sub-G1 population: 48 h.
Experimental: as §8, §9, §10
A further series relates to H1299 D1 and E1 cells. The experiment in a line: MTS cell viability assay, D1 compared with E1 cells. The note with it: for sensitivity of D1 cells relative to E1 cells (MTS cell viability): after induction of Fhit expression, paclitaxel 50-500 ng/ml or cisplatin 0.05-0.2 mM, 24 or 48 h. How it is done: FIG. 4D, MTS cell viability assays were performed on E1 and D1 cells. Cells were treated with PonA for 48 h and then with increasing concentrations of H2O2 (0.125, 0.25, and 0.5 mM) for 4 h. Analysis was at 24 h after H2O2 treatment. Columns report the average of four experiments ±S.E. Each point was measured in quadruplicate and standard deviation calculated; p<0.05 was considered significant.
MTS assays performed on E1 and D1 cells. Cells were treated with PonA for 48 h and then treated with paclitaxel (50-500 ng/ml) (FIG. 6A) or cisplatin (0.05-0.2 mM) (FIG. 6B) for 24 or 48 h.
Chemotherapeutic Drug Treatment—Paclitaxel (Sigma) was dissolved in DMSO as a 10 mmol/liter stock solution and stored at −80° C. Cisplatin (Sigma) was dissolved in water and freshly prepared before use. H1299 D1 and E1 cells were seeded (1×10^4 cells/well) in 96-well culture plates, PonA-induced, and after 24 h treated with paclitaxel (50, 100, and 500 ng/ml) or cisplatin (0.05, 0.1, and 0.2 mM). H1299 D1 and E1 cells PonA-induced were incubated for 24, 48, and 72 h and assessed for viability with an MTS kit (Cell Titer 96® Aqueous MTS kit, Upstate Biotechnology, Lake Placid, N.Y.), as recommended by the manufacturer.

In the next series the test system is PonA-induced D1 cells. The experiment in a line: Immunoblot of caspase 3 and Parp1 cleavage. Type of series: cell-based. The note with it: 48 h; paclitaxel 50 and 100 ng/ml, cisplatin 0.05 and 0.1 mM; compared with untreated cells. How it is done: FIG. 6E, caspase 3 and Parp1 cleavage: immunoblot analyses, using Fhit, caspase 3, and Parp1 antisera, of total cell lysates from PonA-induced D1 cells after 48 h of treatment with paclitaxel (50 and 100 ng/ml) or cisplatin (0.05 and 0.1 mM). GAPDH served as loading control.
At 24 and 72 h (data not shown) increased sub-G1 populations in D1 compared with E1 cells were also detected. To determine whether the sub-G1 fractions of D1 cells represented apoptotic cells, lysates were prepared from drug-treated cells at 48 h and immunoblot analysis performed for caspase 3 and Parp1 cleavage (FIG. […]).
(§1) Western Blot Analysis—Immunoblot analyses were performed as described (13) using monoclonal anti-pentaHis (Qiagen); rabbit polyclonal anti-Fhit (Zymed Laboratories Inc.); rabbit polyclonal antisera against GFP, Hsp60, Hsp10, and cytochrome c (Santa Cruz Biotechnology); rabbit polyclonal anti-Fdxr (Abcam); monoclonal anti-CoxIV (Molecular Probes); anti-V5 (Sigma); anti-Parp1 (Santa Cruz Biotechnology); and anti-caspase 3 (Cell Signaling). Protein levels were normalized relative to β-actin or/and GAPDH^3 level, detected with appropriate antisera (Santa Cruz Biotechnology).

For series [3], the system named is A549 cells transiently expressing Fhit. The experiment in a line: Intracellular superoxide (ROS) by hydroethidine FACS, FHIT plasmid-transfected cells. Type of series: cell-based, human. How it is done:
(§2) FIG. 4A, fluorescence-activated cell sorter (FACS) analysis for ROS assessment in A549 cells 48 h after transfection with FHIT plasmid, with and without a 5-h H2O2 treatment. Empty vector-transfected cells served as control. Intracellular superoxide was determined according to the fluorescence of ethidium as a result of oxidation of hydroethidine by O2. M2 refers to the fraction of ROS positive cells.
(§3) The inventors herein then investigated determine whether ROS production could be involved in Fhit-mediated apoptosis. […] The inventors examined ROS production in A549 cells, with and without H2O2 treatment, after transient transfection with the FHIT expression plasmid. Intracellular superoxide was assessed by measuring ethidium fluorescence, as a result of oxidation of hydroethydine by superoxide. Intracellular superoxide was measured 5 h after stimulation with increasing concentrations of H2O2.
(§4) Assessment of Intracellular Reactive Oxygen Species (ROS)—Intracellular superoxide was measured through ethidium fluorescence as a result of oxidation by hydroethidine (dihydroethidium-HE; Molecular Probes). MNK74 stably Fhit expressing cells, A549 cells transiently expressing Fhit, and H1299 inducible Fhit expressing cells were treated with 0.5, 1.0, 2.0, and 4.0 mM H2O2 at 37° C.; 4 h later, hydroethidine (10 μM) was added to cells and incubated for 15 min at 37° C. Fluorescence was measured by flow cytometry. Dichlorofluorescein diacetate (DCFH-DA) (Molecular Probes) was used in D1 cells expressing induced Fhit, stressed with H2O2 (0.1 to 1.0 mM), treated with 10 μM DCFH-DA, and incubated for 1 h at 37° C. DCF fluorescence was measured by flow cytometry on a FAC-Scan flow cytometer and fluorescence microscopy.

Series [4] has as its system A549 cells (empty vector). The experiment in a line: Intracellular superoxide (ROS) by hydroethidine FACS, empty vector-transfected cells. Type of series: cell-based, human. How it is done: as §2, §3, §4
The test system of series [5] is H1299 D1 cells. The experiment in a line: ROS assessment by hydroethidine FACS, Fhit-positive cells. The note with it: 5 μM PonA 48 h. The series is classed as cell-based. How it is done: (§5) FIG. 4B, FACS analysis for ROS assessment by the fluorescence produced from the oxidation of hydroethidine in D1 and E1 cells; 48 h after PonA treatment, cells were treated for 5 h with 0.5 and 1.0 mM H2O2 and oxidative stress was measured; % positive refers to the fraction of fluorescent cells, indicating ROS. These experiments were repeated three times with similar results.
(§6) A similar experiment was performed with p53 and Fhit negative lung cancer-derived H1299 D1 and E1 clones carrying PonA-inducible FHIT and empty vector expression plasmids, respectively; the cells were treated with 5 μM PonA and at 48 h treated with 0.5 and 1.0 mM H2O2; the % ROS-positive cells was higher in Fhit-positive D1 cells than in E1 control cells (20 versus 3.5% at 0.5 mM H2O2, and 78 versus 25% at 1.0 mM H2O2, respectively) (FIG. 4B).
(§7) Assessment of Intracellular Reactive Oxygen Species (ROS)—Intracellular superoxide was measured through ethidium fluorescence as a result of oxidation by hydroethidine (dihydroethidium-HE; Molecular Probes). […] Fluorescence was measured by flow cytometry. […] DCF fluorescence was measured by flow cytometry on a FAC-Scan flow cytometer and fluorescence microscopy.

Series [6] relates to H1299 E1 cells. The experiment in a line: ROS assessment by hydroethidine FACS, control cells. The series is classed as cell-based. The following applies: 5 μM PonA 48 h. How it is done:
as §5, §6, §7

A further series relates to H1299/D1 cells. The experiment in a line: Colony formation assay. The series is classed as cell-based. The following applies: Fhit-expressing cells, 0.25 mM or higher H2O2, 5-h treatment. How it is done:
FIG. 4F, colony formation assay of H1299/D1 and H1299/E1 cells after […] PonA stimulation and a 5-h H2O2 treatment at the indicated concentrations.

In another series the test system is MKN74A116 cells. The experiment in a line: ROS assessment in gastric cancer cells expressing exogenous Fhit. The following applies: Fhit-expressing MKN74 cells, 2 mM H2O2, 5 hr. Type of series: cell-based, human. How it is done:
FIG. 10. TABLE 2, Fhit induces generation of ROS in MKN74 gastric cancer cells. ROS assessment was performed with MKN74A116, a human gastric cancer cell line carrying a p53 mutant allele and expressing exogenous Fhit; Fhit-negative MKN74E4 cells were used as a control. To induce ROS generation, we treated MKN74 cells for 5 hr with 0.5, 1.0 and 2.0 mM H2O2. […] Numbers report the average of four experiments ±S.E.
as §4

The next series relates to Fdxr in D1 and E1 cells. The experiment in a line: Immunoblot of Fdxr protein level after proteasome inhibition. The series is classed as cell-based. The note with it: 4 h after MG132 treatment (25 μA). How it is done:
FIG. 5B, immunoblot analysis of Fdxr expression in D1 and E1 cells after a 4-h treatment with 25 μA MG132, a proteasome inhibitor.
as §1

Take `N.N.[Cl][Pt][Cl]` [cisplatin, Cisplatin]: the sub-G1 population with H1299 D1 cells [1] (cisplatin 0.05 mM) came out at 5%; with H1299 D1 cells [1] (cisplatin 0.1 mM), 16.2%; in the series on H1299 D1 cells [1] (cisplatin 0.2 mM), 30%; with H1299 E1 cells [2] (cisplatin 0.05 mM), 2.3%; with H1299 E1 cells [2] (cisplatin 0.1 mM), 7%; with H1299 E1 cells [2] (cisplatin 0.2 mM) it was 14.6%. The “sensitivity of D1 cells relative to E1 cells (MTS cell viability)” value with H1299 D1 and E1 cells is listed as “more sensitive”. Also, the “activated caspase 3 and related Parp1 cleavage” value in the series with PonA-induced D1 cells is on record as “observed”.
On to `CC(=O)O[C@H]1C(=O)[C@@]2(C)[C@H]([C@H](OC(=O)c3ccccc3)[C@]3(O)C[C@H](OC(=O)[C@H](O)[C@@H](NC(=O)c4ccccc4)c4ccccc4)C(C)=C1C3(C)C)[C@]1(OC(C)=O)CO[C@@H]1C[C@@H]2O` [paclitaxel, Paclitaxel], for which the sub-G1 population is recorded as 9.6% in the series with H1299 D1 cells [1] (paclitaxel 50 ng/ml); 36% in the series on H1299 D1 cells [1] (paclitaxel 100 ng/ml); 40% with H1299 D1 cells [1] (paclitaxel 500 ng/ml); 4% in the series with H1299 E1 cells [2] (paclitaxel 50 ng/ml); 16.7% in the series on H1299 E1 cells [2] (paclitaxel 100 ng/ml); 30% with H1299 E1 cells [2] (paclitaxel 500 ng/ml). Besides, the “sensitivity of D1 cells relative to E1 cells (MTS cell viability)” value in the series with H1299 D1 and E1 cells is “more sensitive”. For the same compound, in the series with PonA-induced D1 cells, the “activated caspase 3 and related Parp1 cleavage” value was “observed”.
In the case of `OO` [H2O2], the G2/M arrest is recorded as 45.5% with H1299 D1 cells [1] (48 h after 0.25 mM H2O2), 49.5% with H1299 D1 cells [1] (48 h after 0.5 mM H2O2), 27.5% with H1299 E1 cells [2] (48 h after 0.25 mM H2O2) and 29% in the series with H1299 E1 cells [2] (48 h after 0.5 mM H2O2). In addition, the “ROS generation (fraction of ROS positive cells)” value in [3] (FHIT-transfected A549, 0.5 mM H2O2, 5 h) is on record as 16.7%; in [3] (FHIT-transfected A549, 1.0 mM H2O2, 5 h), 18.8%; in series [4] (empty vector A549, 0.5 mM H2O2, 5 h), 5.4%; in series [4] (empty vector A549, 1.0 mM H2O2, 5 h), 7.7%. The toxicity to cells entry in series [3] (Fhit-expressing A549, 2 mM H2O2) is given as “toxic”; in series [4] (non-expressing A549, 2 mM H2O2) it was “not to non-expressing cells”; in the series on MKN74A116 cells, “toxicity was observed”. For the same compound, the “% ROS-positive cells” value is recorded as 20% in the series on H1299 D1 cells [5] (0.5 mM H2O2), 78% in the series on H1299 D1 cells [5] (1.0 mM H2O2), 3.5% in the series with H1299 E1 cells [6] (0.5 mM H2O2) and 25% with H1299 E1 cells [6] (1.0 mM H2O2). Moreover, the colony formation result in the series with H1299/D1 cells is on record as “No colonies were detected”. Besides, the “cell viability (MTS cytotoxicity assay)” value with H1299 D1 and E1 cells (24 h after H2O2 treatment (0.125, 0.25, 0.5 mM, 4 h)) was “reduced cell viability or growth arrest in both E1 and D1 cells, but this phenotype was more pronounced in D1 cells”.
Take `CC(C)C[C@@H](C=O)NC(=O)[C@H](CC(C)C)NC(=O)[C@H](CC(C)C)NC(=O)OCc1ccccc1` [MG132] (Cbz-Leu-Leu-Leu-aldehyde): the “Fdxr protein level in D1 cells compared with E1 cells” value in the series on Fdxr in D1 and E1 cells is “significant increase”.
